Measured values taken from ChEMBL document CHEMBL3596195, “Novel cajaninstilbene acid derivatives as antibacterial agents” (Eur J Med Chem, 2015).
≈ marks a conversion by molar mass, not a printed value.

Tests used:
Type in all cases: functional
[1] = tested on: Proteus vulgaris; experiment: Antibacterial activity against Proteus vulgaris ATCC49101 assessed as bacterial growth inhibition after 24 hrs by broth dilution method; settings: ATCC49101, 24 h
[2] = tested on: Staphylococcus aureus; experiment: Antibacterial activity against methicillin-resistant Staphylococcus aureus ATCC513045 assessed as bacterial growth inhibition after 24 hrs by broth dilution method; settings: ATCC513045, 24 h
[3] = tested on: Staphylococcus epidermidis; experiment: Antibacterial activity against Staphylococcus epidermidis ATCC12228 assessed as bacterial growth inhibition after 24 hrs by broth dilution method; settings: ATCC12228, 24 h
[4] = tested on: Pseudomonas aeruginosa; experiment: Antibacterial activity against Pseudomonas aeruginosa ATCC2785 assessed as bacterial growth inhibition after 24 hrs by broth dilution method; settings: ATCC2785, 24 h
[5] = tested on: Staphylococcus aureus; experiment: Antibacterial activity against methicillin-resistant Staphylococcus aureus ATCC515992 assessed as bacterial growth inhibition after 24 hrs by broth dilution method; settings: ATCC515992, 24 h
[6] = tested on: Staphylococcus aureus; experiment: Antibacterial activity against Staphylococcus aureus ATCC25923 assessed as bacterial growth inhibition after 24 hrs by broth dilution method; settings: ATCC25923, 24 h
[7] = tested on: Escherichia coli; experiment: Antibacterial activity against Escherichia coli ATCC25922 assessed as bacterial growth inhibition after 24 hrs by broth dilution method; settings: ATCC25922, 24 h
[8] = tested on: Staphylococcus aureus; experiment: Antibacterial activity against methicillin-resistant Staphylococcus aureus ATCC43300 assessed as bacterial growth inhibition after 24 hrs by broth dilution method; settings: ATCC43300, 24 h
[9] = tested on: Staphylococcus aureus; experiment: Antibacterial activity against methicillin-resistant Staphylococcus aureus ATCC62202 assessed as bacterial growth inhibition after 24 hrs by broth dilution method; settings: ATCC62202, 24 h
[10] = tested on: Staphylococcus aureus; experiment: Antibacterial activity against methicillin-resistant Staphylococcus aureus ATCC510019 assessed as bacterial growth inhibition after 24 hrs by broth dilution method; settings: ATCC510019, 24 h
[11] = tested on: Staphylococcus aureus; experiment: Antibacterial activity against methicillin-resistant Staphylococcus aureus ATCC52056 assessed as bacterial growth inhibition after 24 hrs by broth dilution method; settings: ATCC52056, 24 h
[12] = tested on: Bacillus subtilis; experiment: Antibacterial activity against Bacillus subtilis ATCC6633 assessed as bacterial growth inhibition after 24 hrs by broth dilution method; settings: ATCC6633, 24 h
[13] = tested on: Staphylococcus aureus; experiment: Antibacterial activity against methicillin-resistant Staphylococcus aureus ATCC51033 assessed as bacterial growth inhibition after 24 hrs by broth dilution method; settings: ATCC51033, 24 h
[14] = tested on: Staphylococcus aureus; experiment: Antibacterial activity against methicillin-resistant Staphylococcus aureus ATCC425055 assessed as bacterial growth inhibition after 24 hrs by broth dilution method; settings: ATCC425055, 24 h
[15] = tested on: Staphylococcus aureus; experiment: Antibacterial activity against methicillin-resistant Staphylococcus aureus ATCC523512 assessed as bacterial growth inhibition after 24 hrs by broth dilution method; settings: ATCC523512, 24 h

Compound: COC(=O)c1c(/C=C/c2ccc(F)cc2F)cc(OC)c(CC=C(C)C)c1O
- MIC [1]: > 128 µg/mL
- MIC [2]: > 128 µg/mL
- MIC [3]: 64 µg/mL (≈ 165 µM)
- MIC [4]: > 128 µg/mL
- MIC [5]: > 128 µg/mL
- MIC [6]: > 128 µg/mL
- MIC [7]: > 128 µg/mL
- MIC [8]: > 128 µg/mL
- MIC [9]: 64 µg/mL (≈ 165 µM)
- MIC [10]: > 128 µg/mL
- MIC [11]: 128 µg/mL (≈ 330 µM)
- MIC [12]: 128 µg/mL (≈ 330 µM)
- MIC [13]: 128 µg/mL (≈ 330 µM)
- MIC [14]: 128 µg/mL (≈ 330 µM)
- MIC [15]: 64 µg/mL (≈ 165 µM)

Compound: COC(=O)c1c(/C=C/c2ccc(Cl)cc2)cc(OC)c(CC=C(C)C)c1O
- MIC [1]: > 128 µg/mL
- MIC [2]: > 128 µg/mL
- MIC [3]: 128 µg/mL (≈ 331 µM)
- MIC [4]: > 128 µg/mL
- MIC [5]: > 128 µg/mL
- MIC [6]: > 128 µg/mL
- MIC [7]: > 128 µg/mL
- MIC [8]: > 128 µg/mL
- MIC [9]: 128 µg/mL (≈ 331 µM)
- MIC [10]: > 128 µg/mL
- MIC [11]: > 128 µg/mL
- MIC [12]: > 128 µg/mL
- MIC [13]: > 128 µg/mL
- MIC [14]: > 128 µg/mL
- MIC [15]: > 128 µg/mL

Compound: COC(=O)c1c(O)cc(OC)cc1/C=C/c1ccc(F)cc1F
- MIC [1]: > 128 µg/mL
- MIC [2]: > 128 µg/mL
- MIC [3]: > 128 µg/mL
- MIC [4]: > 128 µg/mL
- MIC [5]: > 128 µg/mL
- MIC [6]: > 128 µg/mL
- MIC [7]: > 128 µg/mL
- MIC [8]: 128 µg/mL (≈ 400 µM)
- MIC [9]: > 128 µg/mL
- MIC [10]: > 128 µg/mL
- MIC [11]: > 128 µg/mL
- MIC [12]: > 128 µg/mL
- MIC [13]: 128 µg/mL (≈ 400 µM)
- MIC [14]: 128 µg/mL (≈ 400 µM)
- MIC [15]: > 128 µg/mL

Compound: COc1cc(/C=C/c2cc(OC)c(OC)c(OC)c2)c(C(=O)O)c(O)c1CC=C(C)C
- MIC [1]: > 64 µg/mL
- MIC [2]: 16 µg/mL (≈ 37.3 µM)
- MIC [3]: 32 µg/mL (≈ 74.7 µM)
- MIC [4]: > 64 µg/mL
- MIC [5]: 16 µg/mL (≈ 37.3 µM)
- MIC [6]: 64 µg/mL (≈ 149 µM)
- MIC [7]: > 128 µg/mL
- MIC [8]: 16 µg/mL (≈ 37.3 µM)
- MIC [9]: 32 µg/mL (≈ 74.7 µM)
- MIC [10]: 16 µg/mL (≈ 37.3 µM)
- MIC [11]: 32 µg/mL (≈ 74.7 µM)
- MIC [12]: 16 µg/mL (≈ 37.3 µM)
- MIC [13]: 64 µg/mL (≈ 149 µM)
- MIC [14]: 16 µg/mL (≈ 37.3 µM)
- MIC [15]: 16 µg/mL (≈ 37.3 µM)

Compound: CC1(C)S[C@@H]2[C@H](NC(=O)Cc3ccccc3)C(=O)N2[C@H]1C(=O)O [PENICILLIN G]
- MIC [1]: > 16 µg/mL
- MIC [2]: 32 µg/mL (≈ 95.7 µM)
- MIC [3]: 2 µg/mL (≈ 5.98 µM)
- MIC [4]: 16 µg/mL (≈ 47.8 µM)
- MIC [5]: 32 µg/mL (≈ 95.7 µM)
- MIC [6]: 2 µg/mL (≈ 5.98 µM)
- MIC [7]: 64 µg/mL (≈ 191 µM)
- MIC [8]: 32 µg/mL (≈ 95.7 µM)
- MIC [9]: 32 µg/mL (≈ 95.7 µM)
- MIC [10]: 32 µg/mL (≈ 95.7 µM)
- MIC [11]: 64 µg/mL (≈ 191 µM)
- MIC [12]: 2 µg/mL (≈ 5.98 µM)
- MIC [13]: 32 µg/mL (≈ 95.7 µM)
- MIC [14]: 32 µg/mL (≈ 95.7 µM)
- MIC [15]: 32 µg/mL (≈ 95.7 µM)

Compound: COc1cc(/C=C/c2ccc(F)cc2)c(C(=O)O)c(O)c1CC=C(C)C
- MIC [1]: > 64 µg/mL
- MIC [2]: 8 µg/mL (≈ 22.4 µM)
- MIC [3]: 4 µg/mL (≈ 11.2 µM)
- MIC [4]: > 64 µg/mL
- MIC [5]: 8 µg/mL (≈ 22.4 µM)
- MIC [6]: 8 µg/mL (≈ 22.4 µM)
- MIC [7]: > 128 µg/mL
- MIC [8]: 4 µg/mL (≈ 11.2 µM)
- MIC [9]: 1 µg/mL (≈ 2.81 µM)
- MIC [10]: 1 µg/mL (≈ 2.81 µM)
- MIC [11]: 1 µg/mL (≈ 2.81 µM)
- MIC [12]: 1 µg/mL (≈ 2.81 µM)
- MIC [13]: 1 µg/mL (≈ 2.81 µM)
- MIC [14]: 2 µg/mL (≈ 5.61 µM)
- MIC [15]: 4 µg/mL (≈ 11.2 µM)

Compound: COC(=O)c1c(O)cc(OC)cc1/C=C/c1ccc(Cl)cc1
- MIC [1]: > 128 µg/mL
- MIC [2]: > 128 µg/mL
- MIC [3]: > 128 µg/mL
- MIC [4]: > 128 µg/mL
- MIC [5]: > 128 µg/mL
- MIC [6]: > 128 µg/mL
- MIC [7]: > 128 µg/mL
- MIC [8]: > 128 µg/mL
- MIC [9]: 128 µg/mL (≈ 402 µM)
- MIC [10]: > 128 µg/mL
- MIC [11]: > 128 µg/mL
- MIC [12]: 128 µg/mL (≈ 402 µM)
- MIC [13]: > 128 µg/mL
- MIC [14]: > 128 µg/mL
- MIC [15]: > 128 µg/mL

Compound: COc1cc(/C=C/c2ccccc2)c(C(=O)O)c(O)c1CC=C(C)C
- MIC [1]: > 64 µg/mL
- MIC [2]: 16 µg/mL (≈ 47.3 µM)
- MIC [3]: 16 µg/mL (≈ 47.3 µM)
- MIC [4]: > 64 µg/mL
- MIC [5]: 32 µg/mL (≈ 94.6 µM)
- MIC [6]: 16 µg/mL (≈ 47.3 µM)
- MIC [7]: > 128 µg/mL
- MIC [8]: 16 µg/mL (≈ 47.3 µM)
- MIC [9]: 8 µg/mL (≈ 23.6 µM)
- MIC [10]: 32 µg/mL (≈ 94.6 µM)
- MIC [11]: 16 µg/mL (≈ 47.3 µM)
- MIC [12]: 32 µg/mL (≈ 94.6 µM)
- MIC [13]: 16 µg/mL (≈ 47.3 µM)
- MIC [14]: 16 µg/mL (≈ 47.3 µM)
- MIC [15]: 32 µg/mL (≈ 94.6 µM)

Compound: COC(=O)c1c(O)cc(OC)cc1/C=C/c1ccc(F)cc1
- MIC [1]: > 128 µg/mL
- MIC [2]: > 128 µg/mL
- MIC [3]: > 128 µg/mL
- MIC [4]: > 128 µg/mL
- MIC [5]: 128 µg/mL (≈ 423 µM)
- MIC [6]: > 128 µg/mL
- MIC [7]: > 128 µg/mL
- MIC [8]: > 128 µg/mL
- MIC [9]: > 128 µg/mL
- MIC [10]: > 128 µg/mL
- MIC [11]: > 128 µg/mL
- MIC [12]: > 128 µg/mL
- MIC [13]: > 128 µg/mL
- MIC [14]: > 128 µg/mL
- MIC [15]: > 128 µg/mL

Compound: COc1ccc(/C=C/c2cc(OC)cc(O)c2C(=O)O)cc1
- MIC [1]: > 128 µg/mL
- MIC [2]: > 128 µg/mL
- MIC [3]: > 128 µg/mL
- MIC [4]: > 128 µg/mL
- MIC [5]: > 128 µg/mL
- MIC [6]: > 128 µg/mL
- MIC [7]: > 128 µg/mL
- MIC [8]: > 128 µg/mL
- MIC [9]: > 128 µg/mL
- MIC [10]: > 128 µg/mL
- MIC [11]: > 128 µg/mL
- MIC [12]: 64 µg/mL (≈ 213 µM)
- MIC [13]: > 128 µg/mL
- MIC [14]: > 128 µg/mL
- MIC [15]: > 128 µg/mL
